Data as given in patent US11065231B2, “Compounds and methods for the targeted degradation of interleukin-1 receptor- associated kinase 4 polypeptides” (Arvinas Operations, Inc., priority 2017, dated 2021).

How the values were obtained:
IRAK4 [1] = target: T1, IRAK4 (Homo sapiens (Human), UniProt Q9NWZ3); assay: Biochemical Z'-Lyte FRET assay for IRAK4 kinase inhibition; conditions: 2 nM enzyme, 1 mM ATP, 2 μM substrate
Procedure, shortened: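 Z′-Lyte FRET phosphorylation of Ser/Thr 7 peptide (2 µM) by 2 nM recombinant IRAK4 at 1 mM ATP in HEPES pH 7.5 with MgCl2/MnCl2, after 10 min enzyme–compound preincubation; 1 h at room temperature, then 1 h development, 460/530 nm emission. Duplicate 12-point, 3-fold curves from 30 µM; IC50 from percent inhibition against ±100% controls.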

IRAK4 [2] = target: T1, IRAK4; assay: Western blot assay for assessing degradation of IRAK4 in MCF7 cells; type: cell-based
Procedure, shortened: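 MCF7 cells were treated 24 h with serially diluted compound (0.1% DMSO final), then lysed in RIPA. IRAK4 and IRAK1 levels were measured by western blot with β-actin probed alongside. Percent degradation compared compound-treated with DMSO-treated lysates.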

IRAK1 [3] = target: T2, IRAK1 (Homo sapiens (Human), UniProt P51617); assay: Western blot assay for degradation of IRAK1 in MCF7 cells; type: cell-based
IRAK4 [4] = target: T1, IRAK4; assay: ELISA assay for IRAK4 degradation in MCF7 cells; type: cell-based; conditions: Table 1, 24 hours
Method: Enzyme-Linked Immunosorbent Assay (ELISA) Assay for IRAK4 Degradation.
MCF7 cells, purchased from ATCC (Manassas, Va.), were used at a passage range of 2-19. Cells were prepared and treated with compounds for 24 hours, exactly as described above for the Western blots. The ELISA assay was performed using the kit and instructions described by Abcam (cat. #: ab213472, Abcam Biotechnology, Cambridge, Mass.). Table 1 below provides and compares the ELISA IRAK4 degradation data to the western blot IRAK 4 degradation data for Examples 2, 3, 4, and 5. Furthermore, FIG. 5 is a graph illustrating the ELISA IRAK4 degradation data.

IRAK4 [5] = target: T1, IRAK4; assay: Western blots of IRAK4 protein degradation; type: cell-based; conditions: from western blots
IRAK1 [6] = target: T2, IRAK1; assay: Western blots of IRAK1 protein degradation; type: cell-based
[7] = Table 1, 24 hours, read-out: IRAK4 by western DC50
[8] = Table 5, IRAK4 degradation, 24 hour incubation, read-out: IRAK4 DC50
[9] = Table 5, IRAK4 degradation, 24 hour incubation, read-out: IRAK4 Dmax (%)
[10] = western blot, 24 hour incubation, read-out: Dmax (IRAK4 degradation)

T2 sequence (P51617 whole entry): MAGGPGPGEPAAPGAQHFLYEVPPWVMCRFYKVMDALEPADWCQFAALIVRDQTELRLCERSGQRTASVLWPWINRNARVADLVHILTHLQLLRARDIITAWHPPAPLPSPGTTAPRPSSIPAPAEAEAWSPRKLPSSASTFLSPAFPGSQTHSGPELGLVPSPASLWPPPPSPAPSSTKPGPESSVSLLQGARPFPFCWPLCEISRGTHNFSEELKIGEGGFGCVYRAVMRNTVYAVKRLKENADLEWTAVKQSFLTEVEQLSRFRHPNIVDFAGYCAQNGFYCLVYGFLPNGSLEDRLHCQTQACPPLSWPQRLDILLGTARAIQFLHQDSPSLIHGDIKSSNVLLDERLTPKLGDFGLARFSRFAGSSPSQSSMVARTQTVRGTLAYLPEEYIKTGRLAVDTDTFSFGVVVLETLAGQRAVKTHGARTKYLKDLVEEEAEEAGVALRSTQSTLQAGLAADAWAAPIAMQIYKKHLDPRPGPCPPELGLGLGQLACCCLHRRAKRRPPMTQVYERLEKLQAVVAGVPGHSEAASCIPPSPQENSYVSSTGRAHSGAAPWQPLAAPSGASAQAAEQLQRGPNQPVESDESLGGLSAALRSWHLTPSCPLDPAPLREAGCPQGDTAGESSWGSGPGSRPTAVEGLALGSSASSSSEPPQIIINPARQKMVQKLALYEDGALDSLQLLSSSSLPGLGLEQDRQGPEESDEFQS
T1 sequence (Q9NWZ3 whole entry): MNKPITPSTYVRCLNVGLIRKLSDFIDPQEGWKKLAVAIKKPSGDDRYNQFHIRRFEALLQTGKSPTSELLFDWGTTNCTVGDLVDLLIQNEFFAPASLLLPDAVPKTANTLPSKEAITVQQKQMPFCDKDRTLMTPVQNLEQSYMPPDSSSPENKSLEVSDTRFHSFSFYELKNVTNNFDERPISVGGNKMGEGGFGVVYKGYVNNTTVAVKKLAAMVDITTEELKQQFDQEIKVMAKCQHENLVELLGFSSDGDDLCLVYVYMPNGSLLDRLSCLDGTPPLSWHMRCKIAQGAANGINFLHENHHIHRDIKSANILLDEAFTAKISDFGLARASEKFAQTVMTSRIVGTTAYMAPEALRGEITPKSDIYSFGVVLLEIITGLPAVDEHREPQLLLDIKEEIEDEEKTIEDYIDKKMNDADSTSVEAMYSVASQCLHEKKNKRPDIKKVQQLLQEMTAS

| IC50 (IRAK4 [1]) | IRAK4 by western % degraded (IRAK4 [2]; Table 1, 24 hours) | DC50 (IRAK4 [2]; [7]) | DC50 (IRAK4 [2]; [8]) | Dmax (IRAK4 [2]; [9]) | DC50 (IRAK4 [2]; western blot, 24 hour incubation, read-out: DC50 (IRAK4 degradation)) | Dmax (IRAK4 [2]; [10]) | IRAK1 protein degradation (IRAK1 [3]) | IRAK4 by ELISA % degraded (IRAK4 [4]) | DC50 (IRAK4 [5]) | Dmax (IRAK4 [5]) | degradation of IRAK1 (IRAK1 [6]) | SMILES |
| --- | --- | --- | --- | --- | --- | --- | --- | --- | --- | --- | --- | --- |
| < 0.03 µM | 80% | 0.023 µM | < 0.03 µM | > 70% | 0.023 µM | 80% | no significant degradation was observed | 86% | – | – | – | O=C1CCC(N2C(=O)c3ccc(OCCOCCOCCN4CCN(Cc5ccc6c(c5)nc(NC(=O)c5cccc(C(F)(F)F)c5)n6[C@H]5CC[C@@H](CO)CC5)CC4)cc3C2=O)C(=O)N1 (some centres unmarked) [compound 3, N-(5-((4-(2-(2-(2-((2-(2,6-dioxopiperidin-3-yl)-1,3-dioxoisoindolin-5-yl)oxy)ethoxy)ethoxy)ethyl)piperazin-1-yl)methyl)-1-((1s,4s)-4-(hydroxymethyl)cyclohexyl)-1H-benzo[d]imidazol-2-yl)-3-(trifluoromethyl)benzamide] |
| – | – | – | – | – | – | – | – | – | 0.0097 µM | 71% | no significant degradation was observed | O=C1CCC(N2C(=O)c3ccc(OCCOCCN4CCN(Cc5ccc6c(c5)nc(NC(=O)c5cccc(C(F)(F)F)c5)n6C5CCC(CO)CC5)CC4)cc3C2=O)C(=O)N1 (centres unmarked) [Exemplary Compound 2, N-(5-((4-(2-(2-((2-(2,6-dioxopiperidin-3-yl)-1,3-dioxoisoindolin-5-yl)oxy)ethoxy)ethyl)piperazin-1-yl)methyl)-1-((1s,4s)-4-(hydroxymethyl)cyclohexyl)-1H-benzo[d]imidazol-2-yl)-3-(trifluoromethyl)benzamide] |
| – | 71% | – | – | 50 to 70% | – | 71% | no significant degradation was observed | 76% | – | – | – | O=C1CCC(N2C(=O)c3ccc(OCCOCCN4CCN(Cc5ccc6c(c5)nc(NC(=O)c5cccc(C(F)(F)F)c5)n6C5CCC(CO)CC5)CC4)cc3C2=O)C(=O)N1 (centres unmarked) [compound 2, N-(5-((4-(2-(2-((2-(2,6-dioxopiperidin-3-yl)-1,3-dioxoisoindolin-5-yl)oxy)ethoxy)ethyl)piperazin-1-yl)methyl)-1-((1s,4s)-4-(hydroxymethyl)cyclohexyl)-1H-benzo[d]imidazol-2-yl)-3-(trifluoromethyl)benzamide] |

More lines, now with the values behind:

| SMILES | IC50 (IRAK4 [1]) | IRAK4 by western % degraded (IRAK4 [2]; Table 1, 24 hours) | DC50 (IRAK4 [2]; [7]) | DC50 (IRAK4 [2]; [8]) | Dmax (IRAK4 [2]; [9]) | DC50 (IRAK4 [2]; western blot, 24 hour incubation, read-out: DC50 (IRAK4 degradation)) | Dmax (IRAK4 [2]; [10]) | IRAK1 protein degradation (IRAK1 [3]) | IRAK4 by ELISA % degraded (IRAK4 [4]) | DC50 (IRAK4 [5]) | Dmax (IRAK4 [5]) | degradation of IRAK1 (IRAK1 [6]) |
| --- | --- | --- | --- | --- | --- | --- | --- | --- | --- | --- | --- | --- |
| O=C1CCC(N2C(=O)c3ccc(OCCOCCOCCOCCN4CCN(Cc5ccc6c(c5)nc(NC(=O)c5cccc(C(F)(F)F)c5)n6[C@H]5CC[C@@H](CO)CC5)CC4)cc3C2=O)C(=O)N1 (some centres unmarked) [compound 4, N-(5-((4-(2-(2-(2-(2-((2-(2,6-dioxopiperidin-3-yl)-1,3-dioxoisoindolin-5-yl)oxy)ethoxy)ethoxy)ethoxy)ethyl)piperazin-1-yl)methyl)-1-((1s,4s)-4-(hydroxymethyl)cyclohexyl)-1H-benzo[d]imidazol-2-yl)-3-(trifluoromethyl)benzamide] | < 0.03 µM | 87% | 0.025 µM | < 0.03 µM | > 70% | – | – | – | 89% | – | – | – |
| O=C1CCC(N2C(=O)c3ccc(OCCOCCOCCOCCOCCN4CCN(Cc5ccc6c(c5)nc(NC(=O)c5cccc(C(F)(F)F)c5)n6[C@H]5CC[C@@H](CO)CC5)CC4)cc3C2=O)C(=O)N1 (some centres unmarked) [compound 5, N-(5-((4-(14-((2-(2,6-dioxopiperidin-3-yl)-1,3-dioxoisoindolin-5-yl)oxy)-3,6,9,12-tetraoxatetradecyl)piperazin-1-yl)methyl)-1-((1s,4s)-4-(hydroxymethyl)cyclohexyl)-1H-benzo[d]imidazol-2-yl)-3-(trifluoromethyl)benzamide] | < 0.03 µM | 76% | 0.04 µM | 0.03 to 0.1 µM | 50 to 70% | – | – | – | 80% | – | – | – |
